Test results reported in patent US10793559B2, “Chemical compounds” (GlaxoSmithKline Intellectual Property Development Limited, priority 2016, dated 2020).
Where “and” joins values, the source holds several entries; their conditions need not be identical. Equal entries are not always repeated. Structures can show the parent of a compound that is named as a salt.

Molecular target: PI3K-Delta (Homo sapiens, UniProt O00329)
Assay: PI3K HTRF assay (PI3K Delta)
Format: biochemical
Conditions: PI3K-Delta 1.5 nM, 80 μM ATP, 10 μM PIP2 final, read-out: mean pIC50 in the PI3K Delta assay (converted)
Protocol: Biological Data PI3K HTRF Assay
The binding of compounds to PI3K-alpha/beta/delta/gamma is determined by homogeneous time resolved fluorescence (HTRF) assays as follows;
Briefly, solid compound is dissolved in 100% DMSO at a concentration of 2 mM. Dilutions are prepared in 100% DMSO using a 1 in 4 serial step dilution. The dilutions are transferred to black low volume Greiner assay plates ensuring that the DMSO concentration is constant across the plate at 1% (0.1 ul/well).
PI3K Reaction Buffer (contains 50 mM HEPES pH7.0 (NaOH), 150 mM NaCl, 10 mM MgCl2, 2.3 mM sodium cholate, 10 μM CHAPS made up in milliQ water). Fresh DTT is added at a final concentration of 1 mM on the day of use. Wortmannin at a concentration sufficient to produce 100% inhibition (8.33e-6 M) is added to column 18 of compound plates.
Enzyme solutions: 1× PI3K assay Buffer containing: • 550 pM PI3K-Alpha enzyme (275 pM final assay concentration) • 800 pM PI3K-Beta enzyme (400 pM final assay concentration) • 3 nM PI3K-Delta enzyme (1.5 nM final assay concentration) • 10 nM PI3K-Gamma enzyme (5 nM final assay concentration)
These concentrations are optimal to achieve a signal:background of between 1.5-4.5. The enzyme solution is added to columns 1-24 (3 ul/well) and plates are incubated for 15 minutes at room temperature.
Substrate solution: 1× PI3K assay buffer containing: • PI3K-Alpha: 500 μM ATP, 20 μM PIP2 and 120 nM biotin-PIP3. (Final assay concentrations are 250 μM ATP, 10 μM PIP2 (both at Km) and 40 nM biotin-PIP3) • PI3K-Beta: 800 μM ATP, 20 μM PIP2 and 120 nM biotin-PIP3. (Final assay concentrations are 400 μM ATP, 10 μM PIP2 (both at Km) and 40 nM biotin-PIP3) • PI3K-Delta: […], 20 μM PIP2 and 120 nM biotin-PIP3. (Final assay concentrations are 80 μM ATP, 10 μM PIP2 (both at Km) and 40 nM biotin-PIP3) • PI3K-Gamma: 30 μM ATP, 20 μM PIP2 and 120 nM biotin-PIP3.
This is added to all wells and plates are incubated for 1 hour at room temperature.
Detection solution: PI3K Detection Buffer (contains 50 mM HEPES pH7.0 (HCl), 150 mM NaCl, 2.3 mM sodium cholate, 10 μM CHAPS, 240 mM potassium fluoride) containing 2 mM DTT (2× final concentration), 90 nM GRP-1 PH domain, 300 nM Streptavidin-APC and 24 nM Europium-anti-GST (6× final concentrations)
This is mixed left at room temperature (protected from light).
STOP solution: PI3K STOP Buffer (contains 50 mM HEPES pH7.0 (HCl), 150 mM NaCl, 2.3 mM sodium cholate, 10 μM CHAPS, 150 mM EDTA).
Detection solution is diluted 1:1 with STOP solution and added to all wells (3 ul/well). Plates are covered and incubated on the bench for 45-60 minutes. Plates are read on a PerkinElmer Envision, measuring TR-FRET between the complex formed between the GST-tagged PH domain and biotinylated PIP3 which both recruit fluorophores (Europium-labelled anti-GST & Strep-APC respectively). […], this complex is disrupted by the competitive action of non-biotinylated PIP3 (formed in the assay by the phosphorylation of PIP2 by the kinase & ATP). From this, the ratio of acceptor/donor was calculated (Aex=317 nm, Aem donor=615 nm, em acceptor=665 nm) and used for data analysis.

PI3K-Delta, sequence (O00329 whole entry): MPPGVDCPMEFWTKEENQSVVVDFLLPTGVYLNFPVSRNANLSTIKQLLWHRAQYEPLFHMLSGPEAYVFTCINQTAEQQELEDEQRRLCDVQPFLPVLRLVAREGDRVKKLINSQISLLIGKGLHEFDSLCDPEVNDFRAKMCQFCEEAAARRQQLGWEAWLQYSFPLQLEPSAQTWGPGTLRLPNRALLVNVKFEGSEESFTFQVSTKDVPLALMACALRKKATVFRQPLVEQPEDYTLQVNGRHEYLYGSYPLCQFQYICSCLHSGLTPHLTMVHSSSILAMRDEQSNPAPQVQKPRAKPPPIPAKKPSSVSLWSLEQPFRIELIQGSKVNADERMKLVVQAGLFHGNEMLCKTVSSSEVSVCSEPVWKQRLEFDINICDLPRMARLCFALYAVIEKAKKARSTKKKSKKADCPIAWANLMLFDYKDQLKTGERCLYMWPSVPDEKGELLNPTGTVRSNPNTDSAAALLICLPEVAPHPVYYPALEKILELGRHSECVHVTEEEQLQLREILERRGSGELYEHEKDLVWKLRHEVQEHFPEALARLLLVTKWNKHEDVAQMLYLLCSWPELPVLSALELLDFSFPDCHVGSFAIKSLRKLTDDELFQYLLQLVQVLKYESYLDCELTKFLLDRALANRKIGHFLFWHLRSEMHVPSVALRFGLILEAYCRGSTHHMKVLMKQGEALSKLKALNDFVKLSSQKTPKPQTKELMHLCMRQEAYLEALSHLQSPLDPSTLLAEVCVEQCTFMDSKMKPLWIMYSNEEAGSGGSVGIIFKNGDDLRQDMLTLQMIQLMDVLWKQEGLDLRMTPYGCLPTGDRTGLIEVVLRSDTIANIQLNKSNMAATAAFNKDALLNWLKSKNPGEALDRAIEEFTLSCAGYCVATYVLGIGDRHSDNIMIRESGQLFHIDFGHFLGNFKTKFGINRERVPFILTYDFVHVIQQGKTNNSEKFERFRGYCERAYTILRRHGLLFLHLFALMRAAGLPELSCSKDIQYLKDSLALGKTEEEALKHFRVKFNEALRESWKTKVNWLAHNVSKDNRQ
PI3K-Delta, sequence (P27986 whole entry partner): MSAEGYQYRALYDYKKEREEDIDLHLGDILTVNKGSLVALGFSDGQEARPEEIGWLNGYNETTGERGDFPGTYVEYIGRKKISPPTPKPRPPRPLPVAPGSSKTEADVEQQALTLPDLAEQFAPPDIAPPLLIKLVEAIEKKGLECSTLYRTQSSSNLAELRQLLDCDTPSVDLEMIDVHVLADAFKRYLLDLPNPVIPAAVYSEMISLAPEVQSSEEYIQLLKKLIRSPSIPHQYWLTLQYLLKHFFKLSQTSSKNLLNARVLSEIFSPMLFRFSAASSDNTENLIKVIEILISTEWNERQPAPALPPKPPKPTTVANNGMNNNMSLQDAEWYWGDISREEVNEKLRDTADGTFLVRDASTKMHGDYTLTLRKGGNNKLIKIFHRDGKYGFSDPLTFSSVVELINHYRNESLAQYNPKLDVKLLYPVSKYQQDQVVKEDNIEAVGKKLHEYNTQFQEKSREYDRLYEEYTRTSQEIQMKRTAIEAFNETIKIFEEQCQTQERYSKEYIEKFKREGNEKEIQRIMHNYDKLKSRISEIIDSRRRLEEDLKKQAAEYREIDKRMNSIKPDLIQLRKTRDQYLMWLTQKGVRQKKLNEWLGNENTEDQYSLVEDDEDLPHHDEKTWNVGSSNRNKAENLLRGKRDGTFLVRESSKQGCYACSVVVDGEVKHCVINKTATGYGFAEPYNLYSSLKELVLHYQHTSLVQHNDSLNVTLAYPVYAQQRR

In the case of COc1ncc(N2CCOCC2)cc1S(=O)(=O)Nc1ccnc(-c2ccc(CN3CCN(C(C)C)CC3)cc2F)c1 [Example 1, N-(2-(2-Fluoro-4-((4-isopropylpiperazin-1-yl)methyl)phenyl)pyridin-4-yl)-2-methoxy-5-morpholinopyridine-3-sulfonamide], the IC50 is reported as 1 nM and ≤ 3.16 nM.
For COc1ncc(N2CCOCC2)cc1S(=O)(=O)Nc1ccnc(-c2ccc(CN3CCN(C(C)(C)C)CC3)cc2F)c1 [Example 2, N-(2-(4-((4-(tert-Butyl)piperazin-1-yl)methyl)-2-fluorophenyl)pyridin-4-yl)-2-methoxy-5-morpholinopyridine-3-sulfonamide], the IC50 was no more than 3.16 nM.
With COc1ncc(N2CCOCC2)cc1S(=O)(=O)Nc1ccnc(-c2ccc(CN3CCN(C(C)C)CC3)cc2)c1 [Example 3, N-(2-(4-((4-Isopropylpiperazin-1-yl)methyl)phenyl)pyridin-4-yl)-2-methoxy-5-morpholinopyridine-3-sulfonamide] the IC50 was no more than 3.16 nM.
In the case of COc1ncc(N2CCOCC2)cc1S(=O)(=O)Nc1ccnc(-c2ccc(CN3CCN(C(C)C)CC3)c(F)c2)c1 [Example 5, N-(2-(3-Fluoro-4-((4-isopropylpiperazin-1-yl)methyl)phenyl)pyridin-4-yl)-2-methoxy-5-morpholinopyridine-3-sulfonamide], the IC50 is reported as no more than 3.16 nM.
COc1ncc(N2CCOCC2)cc1S(=O)(=O)Nc1ccnc(-c2ccc(CN3CCN(C(C)(C)C)CC3)cc2)c1 [Example 6, N-(2-(4-((4-(tert-Butyl)piperazin-1-yl)methyl)phenyl)pyridin-4-yl)-2-methoxy-5-morpholinopyridine-3-sulfonamide] showed an IC50 of no more than 3.16 nM.
In the case of COc1ncc(N2CCOCC2)cc1S(=O)(=O)Nc1ccnc(-c2ccc(CN3CCN(C4CCC4)CC3)cc2)c1 [Example 7], the IC50 is reported as no more than 3.16 nM.
Compound COc1ncc(N2CCOCC2)cc1S(=O)(=O)Nc1ccnc(-c2c(F)cc(CN3CCN(C(C)C)CC3)cc2F)c1 [Example 8, N-(2-(2,6-Difluoro-4-((4-isopropylpiperazin-1-yl)methyl)phenyl)pyridin-4-yl)-2-methoxy-5-morpholinopyridine-3-sulfonamide] has an IC50 of no more than 3.16 nM.
Compound CCC(C)N1CCN(Cc2ccc(-c3cc(NS(=O)(=O)c4cc(N5CCOCC5)cnc4OC)ccn3)cc2)CC1 (stereo not shown) [Example 9] has an IC50 of no more than 3.16 nM.
COc1ncc(N2CCOCC2)cc1S(=O)(=O)Nc1ccnc(-c2cc(F)c(CN3CCN(C(C)C)CC3)c(F)c2)c1 [Example 12, N-(2-(3,5-Difluoro-4-((4-isopropylpiperazin-1-yl)methyl)phenyl)pyridin-4-yl)-2-methoxy-5-morpholinopyridine-3-sulfonamide] was tested, and the IC50 was no more than 3.16 nM.
With COc1ncc(N2CCOCC2)cc1S(=O)(=O)Nc1ccnc(-c2ccc(CN3CCN(C4COC4)CC3)cc2)c1 [Example 13] the IC50 was no more than 3.16 nM.
For COc1ncc(N2CCOCC2)cc1S(=O)(=O)Nc1ccnc(-c2ccc(CN3CCN(C(C)C)CC3)c(F)c2F)c1 [Example 14, N-(2-(2,3-Difluoro-4-((4-isopropylpiperazin-1-yl)methyl)phenyl)pyridin-4-yl)-2-methoxy-5-morpholinopyridine-3-sulfonamide], the IC50 was no more than 3.16 nM.
For COc1ncc(N2CCOCC2)cc1S(=O)(=O)Nc1ccnc(-c2ccc(CN3CCN(C4COC4)CC3)cc2F)c1 [Example 15, N-(2-(2-Fluoro-4-((4-(oxetan-3-yl)piperazin-1-yl)methyl)phenyl)pyridin-4-yl)-2-methoxy-5-morpholinopyridine-3-sulfonamide, 3 formic acid salt], the IC50 was no more than 3.16 nM.
COc1ncc(N2CCOCC2)cc1S(=O)(=O)Nc1ccnc(-c2ccc(CN3CCN(C4CCC4)CC3)cc2F)c1 [Example 16, N-(2-(4-((4-Cyclobutylpiperazin-1-yl)methyl)-2-fluorophenyppyridin-4-yl)-2-methoxy-5-morpholinopyridine-3-sulfonamide, 2.5 formic acid salt] gave an IC50 of no more than 3.16 nM.
In the case of COc1ncc(N2CCOCC2)cc1S(=O)(=O)Nc1ccnc(-c2cc(F)c(CN3CCN(C(C)C)CC3)cc2F)c1 [Example 17, N-(2-(2,5-Difluoro-4-((4-isopropylpiperazin-1-yl)methyl)phenyl)pyridin-4-yl)-2-methoxy-5-morpholinopyridine-3-sulfonamide], the IC50 is reported as no more than 3.16 nM.
With COCCN1CCN(Cc2ccc(-c3cc(NS(=O)(=O)c4cc(N5CCOCC5)cnc4OC)ccn3)c(F)c2)CC1 [Example 18, N-(2-(2-Fluoro-4-((4-(2-methoxyethyl)piperazin-1-yl)methyl)phenyl)pyridin-4-yl)-2-methoxy-5-morpholinopyridine-3-sulfonamide, 1.2 formic acid salt] the IC50 was no more than 3.16 nM.
COc1ncc(N2CCOCC2)cc1S(=O)(=O)Nc1ccnc(-c2ccc(CN3CCC(C)C3)cc2F)c1 (stereo not shown) [Example 19, N-(2-(2-fluoro-4-((3-methylpyrrolidin-1-yl)methyl)phenyl)pyridin-4-yl)-2-methoxy-5-morpholinopyridine-3-sulfonamide] showed an IC50 of no more than 3.16 nM.
Compound COc1ncc(N2CCOCC2)cc1S(=O)(=O)Nc1ccnc(-c2ccc(CN3CCCCC3)cc2F)c1 [Example 21, N-(2-(2-fluoro-4-(piperidin-1-ylmethyl)phenyl)pyridin-4-yl)-2-methoxy-5-morpholinopyridine-3-sulfonamide] has an IC50 of no more than 3.16 nM.
Compound COc1ncc(N2CCOCC2)cc1S(=O)(=O)Nc1ccnc(-c2ccc(CN3CCC(C(C)(C)O)CC3)cc2F)c1 [Example 22] has an IC50 of no more than 3.16 nM.
Compound COc1ncc(N2CCOCC2)cc1S(=O)(=O)Nc1ccnc(-c2ccc(CN3C[C@@H](C)O[C@@H](C)C3)cc2)c1 [Example 23, N-(2-(4-(((cis)-2,6-Dimethylmorpholino)methyl)phenyl)pyridin-4-yl)-2-methoxy-5-morpholinopyridine-3-sulfonamide] has an IC50 of no more than 3.16 nM.
COc1ncc(N2CCOCC2)cc1S(=O)(=O)Nc1ccnc(-c2ccc(CN3CCOCC3)cc2)c1 [Example 24, 2-Methoxy-5-morpholino-N-(2-(4-(morpholinomethyl)phenyl)pyridin-4-yl)pyridine-3-sulfonamide] showed an IC50 of no more than 3.16 nM.
For COc1ncc(N2CCOCC2)cc1S(=O)(=O)Nc1ccnc(-c2ccc(CN3CCNCC3)cc2F)c1 [Example 25, N-(2-(2-Fluoro-4-(piperazin-1-ylmethyl)phenyl)pyridin-4-yl)-2-methoxy-5-morpholinopyridine-3-sulfonamide], the IC50 was no more than 3.16 nM.
Compound CC(C)N1CCN(Cc2ccc(-c3cc(NS(=O)(=O)c4cc(N5CCOCC5)cnc4N(C)C)ccn3)c(F)c2)CC1 [Example 26, 2-(Dimethylamino)-N-(2-(2-fluoro-4-((4-isopropylpiperazin-1-yl)methyl)phenyl)pyridin-4-yl)-5-morpholinopyridine-3-sulfonamide] has an IC50 of no more than 3.16 nM.
In the case of CN(C)c1ncc(N2CCOCC2)cc1S(=O)(=O)Nc1ccnc(-c2ccc(CN3CCN(C(C)(C)C)CC3)cc2F)c1 [Example 27, N-(2-(4-((4-(tert-Butyl)piperazin-1-yl)methyl)-2-fluorophenyl)pyridin-4-yl)-2-(dimethylamino)-5-morpholinopyridine-3-sulfonamide], the IC50 is reported as no more than 3.16 nM.
With COc1ncc(N2CCOCC2)cc1S(=O)(=O)Nc1ccnc(-c2cc(Cl)c(CN3CCN(C(C)C)CC3)cc2F)c1 [Example 35, N-(2-(5-Chloro-2-fluoro-4-((4-isopropylpiperazin-1-yl)methyl)phenyl)pyridin-4-yl)-2-methoxy-5-morpholinopyridine-3-sulfonamide] the IC50 was no more than 3.16 nM.
Compound COc1ncc(N2CCOCC2)cc1S(=O)(=O)Nc1ccnc(-c2ccc(CN3C[C@@H](C)O[C@@H](C)C3)cc2F)c1 [Example 36, Rac-N-(2-(4-(((2S,6R)-2,6-dimethylmorpholino)methyl)-2-fluorophenyl)pyridin-4-yl)-2-methoxy-5-morpholinopyridine-3-sulfonamide] has an IC50 of no more than 3.16 nM.
